Entries after “also recorded” stand apart in the source; their conditions may differ. Like-named read-outs stand apart in the source and are kept apart here.
Assays:
HBMEC [1] = assay: E. coli K1 binding and invasion assays in human BMEC (HBMEC); type: cell-based; conditions: for E. coli K1 invasion of human BMEC monolayers: inhibitors of cPLA2α, Rho kinase, Rac1 and PKC; for E. coli K1 invasion of HBMEC: strain RS218, HBMEC pretreated 30 mins, compared to vehicle control (DMSO)
Procedure: E. coli strain RS218 was grown overnight in BHI broth in the presence of streptomycin (50 μg/ml). Bacteria were resuspended in experimental medium [M199-HamF12 (1:1) containing 5% heat-inactivated fetal bovine serum, 2 mM glutamine, and 1 mM pyruvate] and added in a multiplicity of infection (MOI) of 100:1 to HBMEC grown in collagen-coated 24-well plates at 37° C. in 5% CO2 incubator for 90 min for binding assay as described previously (9, 10, 14, 28). HBMEC were washed four times with PBS to remove unbound bacteria, lysed in 0.025% Triton X-100 and plated for determinations of CFUs. The results were calculated as a percent of the initial inoculum and expressed as percent relative binding compared to percent binding of RS218 in the presence of vehicle control (DMSO). Each set was run in triplicates.
The HBMEC invasion assay with gentamicin treatment was performed to determine the number of viable intracellular bacteria recovered from the infected HBMEC, as previously described (9, 10, 14, 28). E. coli K1 strain RS218 was added to HBMEC as described above for binding assay. HBMEC were subsequently washed with RPMI 1640 and incubated with experimental media containing gentamicin (100 μg/ml) for 1 h to kill extracellular bacteria. The cells were washed again with PBS and lysed in 0.025% Triton X-100. The released intracellular bacteria were enumerated by plating on sheep blood agar plates. The results were calculated as a percent of the initial inoculum and expressed as percent relative invasion compared to percent invasion of RS218 in the presence of vehicle control (DMSO). Each set was run in triplicates.
To examine the effects of inhibitors and antagonists on E. coli K1 binding to and invasion of HBMEC, HBMEC were pretreated with inhibitors or antagonists for 30 mins before addition of E. coli, and then processed for binding and invasion assays as described above.
E. coli strain RS218 (O18:K1:H7), a cerebrospinal fluid isolate from a neonate with meningitis, was grown overnight in brain heart infusion (BHI) broth (Difco Laboratories, Detroit, Mich.). Bacteria were resuspended in experimental medium [M199-HamF12 (1:1) containing 5% heat-inactivated fetal bovine serum, 2 mM glutamine, and 1 mM pyruvate] and added in a multiplicity of infection (MOI) of 100:1 to BMECs grown in collagen-coated 24-well plates at 37° C. in 5% CO2 incubator for 90 min for binding assay, as previously described^11. BMECs were washed four times with PBS to remove unbound bacteria, lysed in 0.025% Triton X-100 and plated for determinations of CFUs. The results were calculated as a percent of the initial inoculum and expressed as percent relative binding compared to percent binding of RS218 in the presence of vehicle control (DMSO). Each set was run in triplicates.
The BMEC invasion assay with gentamicin treatment^11 was performed to determine the number of viable intracellular bacteria recovered from the infected BMECs. E. coli K1 strain RS218 was added to BMEC as described above for binding assay. BMECs were subsequently washed with RPMI 1640 and incubated with experimental media containing gentamicin (100 μg/ml) for 1 h to kill extracellular bacteria. The cells were washed again with PBS, lysed in 0.025% Triton X-100, and the released intracellular bacteria were enumerated by plating on sheep blood agar plates. The results were calculated as a percent of the initial inoculum and expressed as percent relative invasion compared to percent invasion of RS218 in the presence of vehicle control (DMSO). Each set was run in triplicates.
E. coli. Human BMEC association and invasion assays were carried out as described previously (15). Briefly, for association assays, confluent human BMEC in 24-well tissue culture plates were incubated with 10^7 CFU of E. coli at a multiplicity of infection of 100 for 90 minutes at 37° C. […]

human BMEC [2] = assay: Type III GBS binding and invasion assays in human BMEC; type: cell-based; conditions: inhibitors of cPLA2α, Rho kinase, Rac1 and PKC
Procedure: GBS. Logarithmic phase cultures of GBS grown in Todd-Hewitt broth at 37° C. were washed and suspended in tissue culture medium. Approximately 5×10^5 CFUs of GBS were added to confluent human BMEC grown in each well of a 24-well plate (Corning Costar, multiplicity of infection of 5 bacteria/cell). The plates were centrifuged at 800×g for 10 min to promote the contact of GBS to the surface of the human BMEC monolayer, and then they were incubated for 2 hr at 37° C. The monolayers were washed three times with PBS and incubated with medium containing gentamicin (100 μg/ml) and penicillin (5 μg/ml) at 37° for 2 hr to kill extracellular bacteria. The monolayers were washed again, lysed, and viable intracellular bacteria were enumerated by culturing onto sheep blood agar plates. The percent invasion was calculated as (the number of intracellular bacteria divided by the number of bacteria inoculated)×100. Each assay was run in triplicate and also repeated at least twice. In one set of experiments the total GBS associated with human BMEC were quantified by the above procedure except that the incubation with gentamicin/penicillin was omitted.
Briefly, human BMEC were pretreated with AACOCF3 for 60 min, and then processed for type III GBS and E. coli K1 binding and invasion assays, as described above.
We next examined the effect of montelukast on type III GBS and E. coli K1 invasion of human BMEC by the methods described earlier. Briefly, human BMEC were treated with monelukast for 60 min and then processed for binding and invasion assays with type III GBS strain K79 and E. coli K1 strain RS 218.

PKC = assay: Activation of PKC and other signaling molecules in response to microbes in human BMEC; type: cell-based; conditions: response to type III GBS and E. coli K1 in human BMEC monolayers
Excerpt: We have previously shown that RhoGTPases and PKC contribute to type III GBS and E. coli K1 invasion of BMEC monolayers (1-3), and our next studies were to examine whether cPLA2α activations are related to RhoGTPases and PKC in type III GBS and E. coli K1 invasion of human BMEC monolayers (e.g., up- and down-stream of each other) by using inhibitors of cPLA2α (AACOCF3), Rho kinase (Y-27632), Rac1 (NSC-23766) and PKC (calphostin C).

HBMEC [3] = conditions: cited from earlier work; for E. coli invasion of human BMEC: inhibitors of iPLA2 and sPLA2, refs (1-3, 24); for E. coli invasion of HBMEC: pretreatment with microfilament-disrupting agents, previous experiments
human BMEC [4] = conditions: inhibitors of iPLA2 and sPLA2; refs (1-3, 24); cited from earlier work
E. coli K1 strain RS218 = assay: Mouse model of experimental hematogenous E. coli meningitis (5-LO-/- and wild-type 129SvEv mice); type: in vivo
Excerpt: Female 5-LO−/− (129-Alox5^tm1Fun/J) and strain-matched (129SvEv) wild-type mice, 9˜12 week old and 18˜26 gm, were used (23). […] Most animals receiving 1×10^7 CFUs, however, died between one and two hour of intravenous inoculation. Based on these observations, we examined and compared E. coli K1 penetration into the brain at one hour following intravenous administration of 1×10^7 CFUs of strain RS218 in 5-LO−/− and wild type mice.
Mice were anesthetized with pentobarbital sodium given subcutaneously at 50 mg/kg and each mouse received 1×10^7 CFU of E. coli RS218 in 100 μl PBS via the tail vein. One hour later, mouse chest was cut open, and blood from right ventricle was collected and plated for bacterial counts (CFUs). The mouse was, then, perfused with a mammalian Ringer's solution by transcardiac perfusion through a 23-gauge needle inserted into the left ventricle of the heart under the perfusion pressure of about 100 mmHg. The perfusate exited through a cut in the right atrium. The composition of the mammalian Ringer solution was: (in mM) 132 NaCl, 4.6 KCl, 2 CaCl2, 1.2 MgSO4, 5.5 glucose, 5.0 NaHCO3, and 20 HEPES and Na-HEPES, containing 10 mg/ml BSA; pH of the Ringer solution was maintained at 7.40-7.45 by adjustment of the ratio of Na-HEPES to HEPES. […] Bacterial penetration into the brain was also expressed as (brain CFUs per gm/blood CFUs per ml)×100. […]

[5] = cited from earlier work

C[C@@H](N)[C@H]1CC[C@H](C(=O)Nc2ccncc2)CC1 [Y-27632]
E. coli K1 invasion of human BMEC monolayers (HBMEC [1]): inhibited type III GBS and E. coli K1 invasion of human BMEC monolayers in a dose-dependent manner | type III GBS invasion of human BMEC monolayers (human BMEC [2]): inhibited type III GBS and E. coli K1 invasion of human BMEC monolayers in a dose-dependent manner | inhibition of other signaling molecules (PKC): did not exhibit any inhibition of other signaling molecules

O=C1O/C(=C/Br)CCC1c1cccc2ccccc12 (stereo not shown) [bromoenol lactone]
E. coli invasion of human BMEC (HBMEC [3]): did not exhibit any significant inhibition | GBS invasion of human BMEC (human BMEC [4]): did not exhibit any significant inhibition

C/C1=C/C(=O)O[C@@H]2C[C@@H](CC[C@H](C)/C=C\C=C\CC1)O[C@@](O)([C@@H]1CSC(=O)N1)C2 [latrunculin A]
E. coli invasion of HBMEC (HBMEC [3]): inhibited

CCCCC/C=C\C\C=C/C=C/C=C/[C@@H](SC[C@H](N)C(=O)NCC(=O)O)[C@@H](O)CCCC(=O)O [LTD4]
E. coli penetration into the brains (E. coli K1 strain RS218; 5-LO-/- mice, one hour after i.v. E. coli K1 strain RS218): rescued the decreased E. coli penetration into the brains

C=C1[C@@H](C)[C@H]2[C@H](Cc3ccccc3)NC(=O)[C@]23[C@H](OC(C)=O)/C=C/[C@@](C)(O)C(=O)[C@@H](C)C/C=C/[C@H]3[C@@H]1O [cytochalasin D]
E. coli invasion of HBMEC (HBMEC [3]): inhibited

CC(C)c1ccc2c(c1)c(SC(C)(C)C)c(CC(C)(C)C(=O)O)n2Cc1ccc(Cl)cc1 [MK886]
E. coli K1 invasion of HBMEC (HBMEC [1]): significantly inhibited E. coli K1 invasion of HBMEC in a dose-dependent manner

CN(C)C(=O)CCSC(SCCC(=O)O)c1cccc(/C=C/c2ccc3ccc(Cl)cc3n2)c1 (stereo not shown) [MK571]
E. coli K1 invasion of HBMEC (HBMEC [1]): inhibited E. coli K1 invasion of human BMEC monolayers in a dose-dependent manner; also recorded: effective in inhibiting E. coli invasion of HBMEC in a dose-dependent manner | E. coli K1 penetration into the brain (brain CFU/gm and percent of brain CFU/blood CFU) (E. coli K1 strain RS218; wild type mice, oral 400 μg/mouse one hour before bacterial injection, one hour after i.v. 1×10^7 CFU): significantly decreased E. coli K1 penetration into the brain in the wild type mice; also recorded: significantly decreased E. coli K1 penetration into the brain of wild type mice

CC(c1cc2ccccc2s1)N(O)C(N)=O (stereo not shown) [zileuton, Zileuton]
E. coli K1 invasion of HBMEC (HBMEC [1]): significantly inhibited E. coli K1 invasion of HBMEC in a dose-dependent manner | safety and tolerability in clinical trials ([5]; developed for asthma): safe and well tolerated

CCN(CC)CCCC(C)Nc1nc(C)cc(Nc2ccc3nc(C)cc(N)c3c2)n1 (stereo not shown) [NSC-23766]
E. coli K1 invasion of human BMEC monolayers (HBMEC [1]): inhibited type III GBS and E. coli K1 invasion of human BMEC monolayers in a dose-dependent manner | type III GBS invasion of human BMEC monolayers (human BMEC [2]): inhibited type III GBS and E. coli K1 invasion of human BMEC monolayers in a dose-dependent manner | inhibition of other signaling molecules (PKC): did not exhibit any inhibition of other signaling molecules

COc1cc(C(=O)NS(=O)(=O)c2ccccc2C)ccc1Cc1cn(C)c2ccc(NC(=O)OC3CCCC3)cc12 [zafirlukast]
E. coli K1 invasion of HBMEC (HBMEC [1]): effective in inhibiting E. coli invasion of HBMEC in a dose-dependent manner | safety and tolerability in clinical trials ([5]; developed for asthma): safe and well tolerated

O=C(O)C1(c2ccc3c(c2)OC[C@H](Cc2ccc(-c4ccccc4)cc2)[C@H]3O)CCCC1 [CP105696]
E. coli K1 invasion of HBMEC (HBMEC [1]): failed to affect E. coli K1 invasion of human BMEC monolayers; also recorded: failed to exhibit any inhibition of E. coli invasion of HBMEC

CC(=O)O[C@@H]1C[C@@H]2[C@@]3(C)CCCC(C)(C)[C@@H]3CC[C@@]2(C)[C@@H]2CC=C(C=O)[C@H](C=O)[C@@]12C [12-episcalaradial]
E. coli invasion of human BMEC (HBMEC [3]): did not exhibit any significant inhibition | GBS invasion of human BMEC (human BMEC [4]): did not exhibit any significant inhibition

calphostin C
E. coli K1 invasion of human BMEC monolayers (HBMEC [1]): inhibited type III GBS and E. coli K1 invasion of human BMEC monolayers in a dose-dependent manner | type III GBS invasion of human BMEC monolayers (human BMEC [2]): inhibited type III GBS and E. coli K1 invasion of human BMEC monolayers in a dose-dependent manner | inhibition of other signaling molecules (PKC): did not exhibit any inhibition of other signaling molecules

O=C(Nc1cccc2c(=O)cc(-c3nnn[nH]3)oc12)c1ccc(OCCCCc2ccccc2)cc1 [pranlukast]
safety and tolerability in clinical trials ([5]; in vivo): safe and well tolerated

Source: patent publication US8980917B2, “Methods for treating or preventing brain infections” (The Johns Hopkins University, priority 2008, dated 2015)
